Laboratory results published in US5945440A, “Indolocarbazole imides and the use thereof” (priority 1992, dated 1999).

Experiments:
[1] = molecular target: T1, MLC kinase (myosin light-chain kinase) (Gallus gallus, UniProt P11799); assay: inhibition of MLC kinase, in vitro enzyme test (32P phosphate incorporation); assay type: biochemical, chicken (stomach); conditions: for IC50: 1 nM MLC kinase, 250 μM ATP, pH 7.2, 20 minutes at 30° C., read-out: inhibition of the protein kinases, MLC-kinase IC50; for ratio of IC50 C-kinase/IC50 MLC-kinase: selectivity factor calculated from the IC50 values
T1 construct: MLC kinase was purified from chicken stomach; from tissue; host or cells: chicken stomach (gizzard smooth muscle)
T1 sequence (P11799 935-1906): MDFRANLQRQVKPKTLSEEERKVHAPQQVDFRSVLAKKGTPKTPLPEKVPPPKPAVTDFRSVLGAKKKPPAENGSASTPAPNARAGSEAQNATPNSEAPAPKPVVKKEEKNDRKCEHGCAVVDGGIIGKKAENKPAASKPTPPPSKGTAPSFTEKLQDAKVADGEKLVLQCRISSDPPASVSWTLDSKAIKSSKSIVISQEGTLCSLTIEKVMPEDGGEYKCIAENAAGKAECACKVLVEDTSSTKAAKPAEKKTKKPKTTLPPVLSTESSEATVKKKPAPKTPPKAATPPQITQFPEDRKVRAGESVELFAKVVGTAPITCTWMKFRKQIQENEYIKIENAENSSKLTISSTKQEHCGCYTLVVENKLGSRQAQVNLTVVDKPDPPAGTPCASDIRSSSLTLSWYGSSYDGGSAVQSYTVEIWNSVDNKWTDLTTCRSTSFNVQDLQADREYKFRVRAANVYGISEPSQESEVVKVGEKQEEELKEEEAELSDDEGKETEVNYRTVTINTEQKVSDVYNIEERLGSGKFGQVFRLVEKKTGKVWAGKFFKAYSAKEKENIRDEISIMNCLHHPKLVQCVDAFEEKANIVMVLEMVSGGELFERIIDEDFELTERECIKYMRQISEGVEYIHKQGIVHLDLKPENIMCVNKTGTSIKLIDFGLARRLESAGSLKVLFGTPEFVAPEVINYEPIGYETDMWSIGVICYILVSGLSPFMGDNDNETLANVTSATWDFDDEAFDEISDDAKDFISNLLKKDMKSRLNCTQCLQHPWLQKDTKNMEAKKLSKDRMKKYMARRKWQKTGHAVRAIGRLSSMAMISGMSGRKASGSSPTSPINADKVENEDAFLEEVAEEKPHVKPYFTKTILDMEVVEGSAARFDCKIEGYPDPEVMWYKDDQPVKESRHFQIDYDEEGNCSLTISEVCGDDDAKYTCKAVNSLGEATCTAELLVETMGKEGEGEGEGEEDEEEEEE

protein kinase C = assay: inhibition of protein kinase C, enzyme test; assay type: biochemical; conditions: read-out: inhibition of the protein kinases, C-kinase IC50
Procedure: In order to ascertain whether it is a question of a selective inhibition of MLC kinase, the compounds were also investigated in other enzyme tests for protein kinase, including tests for protein kinase C. The results from the PKC test are also given in the following Table I. Furthermore, the Table contains selectivity factors which were calculated by the determination of the ratios of the IC50 values.

Compound	IC50 [1]	ratio of IC50 C-kinase/IC50 MLC-kinase [1]	IC50 (protein kinase C)
12-(3-dimethylaminopropyl)-6,7,12,13-tetrahydro-3(9)-hydroxy-9(3)-methoxy- 5,7-dioxo-5H-indolo[2,3-a]pyrrolo[3,4-c]carbazole [Example 2d]	16 nM	2.4	38 nM
Cn1c2ccccc2c2c3c(c4c5ccccc5n(CCC#N)c4c21)C(=O)NC3=O [Example 1a, 12-(2-cyanoethyl)-6,7,12,13-tetrahydro-13-methyl-5,7-dioxo-5H-indolo[2,3-a]pyrrolo[3,4-c]carbazole]	55 nM	0.7	38 nM
COc1ccc2c(c1)c1c3c(c4c5ccccc5n(CCC#N)c4c1n2C)C(=O)NC3=O [Example 1b, 12-(2-cyanoethyl)-6,7,12,13-tetrahydro-3-methoxy-13-methyl-5,7-dioxo-5H-indolo[2,3-a]pyrrolo[3,4-c]-carbazole]	49 nM	0.7	35 nM
COc1ccc2c(c1)c1c3c(c4c5cc(OC)ccc5n(CCC#N)c4c1n2C)C(=O)NC3=O [Example 1c, 12-(2-cyanoethyl)-6,7,12,13-tetrahydro-3,9-dimethoxy-13-methyl-5,7-dioxo-5H-indolo[2,3-a]pyrrolo[3,4-c]-carbazole]	180 nM	0.1	19 nM
CC(CC#N)n1c2ccccc2c2c3c(c4c5ccccc5n(C)c4c21)C(=O)NC3=O (stereo not drawn) [Example 1d, 12-(3-cyano-2-propyl)-6,7,12,13-tetrahydro-13-methyl-5,7-dioxo-5H-indolo[2,3-a]pyrrolo[3,4-c]carbazole]	62 nM	0.6	35 nM
Cn1c2ccccc2c2c3c(c4c5ccccc5n(CC#N)c4c21)C(=O)NC3=O [Example 1e, 12-cyanomethyl-6,7,12,13-tetrahydro-13-methyl-5,7-dioxo-5H-indolo[2,3-a]pyrrolo[3,4-c]carbazole]	17 nM	0.8	14 nM
Cn1c2ccccc2c2c3c(c4c5ccccc5n(CCCC#N)c4c21)C(=O)NC3=O [Example 1g, 12-(3-cyanopropyl)-6,7,12,13-tetrahydro-13-methyl-5,7-dioxo-5H-indolo[2,3-a]pyrrolo[3,4-c]carbazole]	22 nM	1.6	36 nM
COc1ccc2c(c1)c1c3c(c4c5ccccc5n(CCCC#N)c4c1n2C)C(=O)NC3=O [Example 1h, 12-(3-cyanopropyl)-6,7,12,13-tetrahydro-3-methoxy-13-methyl-5,7-dioxo-5H-indolo[2,3-a]pyrrolo[3,4-c]-carbazole]	24 nM	1	24 nM
CN(C)CCCn1c2ccccc2c2c3c(c4c5ccccc5n(C)c4c21)C(=O)NC3=O [Example 1j, 12-(3-dimethylaminopropyl)-6,7,12,13-tetrahydro-13-methyl-5,7-dioxo-5H-indolo[2,3-a]pyrrolo[3,4-c]-carbazole]	45 nM	11.1	500 nM
COc1ccc2c(c1)c1c3c(c4c5ccccc5n(C)c4c1n2CCCN(C)C)C(=O)NC3=O [Example 1k, 13-(3-Dimethylaminopropyl)-6,7,12,13-tetrahydro-3-methoxy-12-methyl-5,1-dioxo-5H-indolo[2,3-a]pyrrolo-[3,4-c]carbazole]	61 nM	7.2	440 nM
Cn1c2ccccc2c2c3c(c4c5ccccc5n(CCCN=[N+]=[N-])c4c21)C(=O)NC3=O [Example 1l, 12-(3-azidopropyl)-6,7,12,13-tetrahydro-13-methyl-5,7-dioxo-5H-indolo[2,3-a]pyrrolo[3,4-c]carbazole]	130 nM	0.4	50 nM
COc1ccc2c(c1)c1c3c(c4c5cc(Cl)ccc5n(CCC#N)c4c1n2C)C(=O)NC3=O [Example 1n, 3-chloro-13-(2-cyanoethyl)-6,7,12,13-tetrahydro-9-methoxy-12-methyl-5,7-dioxo-5H-indolo[2,3-a]pyrrolo-[3,4-a]carbazole]	32 nM	0.6	20 nM
COc1cc2c3c4c(c5c6ccccc6n(C)c5c3n(CCC#N)c2cc1OC)C(=O)NC4=O [Example 1o, 13-(2-cyanoethyl)-6,7,12,13-tetrahydro-2,3-dimethoxy-12-methyl-5,7-dioxo-5H-1-indolo[2,3-a]pyrrolo-[3,4-c]carbazole]	17 nM	0.4	6.7 nM
COc1ccc2c(c1)c1c3c(c4c5ccccc5n(C)c4c1n2CCCC#N)C(=O)NC3=O [Example 1q, 13-(3-cyanopropyl)-6,7,12,13-tetrahydro-3-methoxy-12-methyl-5,7-dioxo-5H-indolo[2,3-a]pyrrolo[3,4-c]-carbazole]	32 nM	0.15	4.7 nM

The next lines start with the values.

IC50 [1]	ratio of IC50 C-kinase/IC50 MLC-kinase [1]	IC50 (protein kinase C)	Compound
170 nM	2.9	500 nM	CCN(CC)CC(O)Cn1c2ccccc2c2c3c(c4c5ccccc5[nH]c4c21)C(=O)NC3=O (racemic) [Example 6, (±)-12-(3-Diethylamino-2-hydroxy-1-propyl)-6,7,12,13-tetrahydro-5,7-dioxo-5H-indolo[2,3-a]pyrrolo[3,4-c]-carbazole]
370 nM	0.3	120 nM	CCN(CC)CC(O)Cn1c2ccccc2c2c3c(c4c5ccccc5n(C)c4c21)C(=O)NC3=O (racemic) [Example 10a, (±)-12-(3-diethylamino-2-hydroxy-1-propyl)-6,7,12,13-tetrahydro-13-methyl-5,7-dioxo-5H-indolo-[2,3-a]pyrrolo[3,4-c]carbazole]
120 nM	0.033	4 nM	COc1ccc2c(c1)c1c3c(c4c5ccccc5n(C)c4c1n2CC(O)CN(C)C)C(=O)NC3=O (racemic) [Example 10b, (±)-13-(3-dimethylamino-2-hydroxy-1-propyl)-6,7,12,13-tetrahydro-3-methoxy-12-methyl-5,7-dioxo-5H-indolo[2,3-a]pyrrolo[3,4-c]carbazole]
29 nM	0.6	17 nM	COc1ccc2c(c1)c1c3c(c4c5cc(OC)ccc5n(CCCC#N)c4c1n2C)C(=O)NC3=O [Example 1r, 12-(3-cyanopropyl)-6,7,12,13-tetrahydro-3,9-dimethoxy-13-methyl-5,7-dioxo-5H-indolo[2,3-a]pyrrolo-[3,4-c]carbazole]
33 nM	0.7	24 nM	COc1ccc2c(c1)c1c3c(c4c5cc(OC)c(OC)cc5n(CCC#N)c4c1n2C)C(=O)NC3=O [Example 1s, 13-(2-cyanoethyl)-6,7,12,13-tetrahydro-2,3,9-trimethoxy-12-methyl-5,7-dioxo-5H-indolo[2,3-a]pyrrolo-[3,4-c]carbazole]
540 nM	8.7	4700 nM	COc1ccc2c3c4c(c5c6ccccc6n(C)c5c3n(CCC#N)c2c1)C(=O)NC4=O [Example 1u, 13-(2-cyanoethyl)-6,7,12,13-tetrahydro-2-methoxy-12-methyl-5,7-dioxo-5H-indolo[2,3-a]pyrrolo[3,4-c]-carbazole]
7.2 nM	7.2	52 nM	CN(C)CCn1c2ccccc2c2c3c(c4c5ccccc5n(C)c4c21)C(=O)NC3=O [Example 1x, 12-(2-dimethylaminoethyl)-6,7,12,13-tetrahydro-13-methyl-5,7-dioxo-5H-indolo[2,3-a]pyrrolo[3,4-c]carbazole]
7.6 nM	4.1	31 nM	COc1ccc2c(c1)c1c3c(c4c5ccccc5n(CCCN(C)C)c4c1n2C)C(=O)NC3=O [Example 1y, 12-(3-dimethylaminopropyl)-6,7,12,13-tetrahydro-3-methoxy-13-methyl-5,7-dioxo-5H-indolo[2,3-a]pyrrolo-[3,4-c]carbazole]
20 nM	1.3	26 nM	COc1cc2c3c4c(c5c6ccccc6n(C)c5c3n(CCCN(C)C)c2cc1OC)C(=O)NC4=O [Example 1z, 13-(3-dimethylaminopropyl)-6,7,12,13-tetrahydro-2,3-dimethoxy-12-methyl-5,7-dioxo-5H-indolo[2,3-a]-pyrrolo[3,4-c]carbazole]
19 nM	1.3	24 nM	Cn1c2ccccc2c2c3c(c4c5cc(O)ccc5n(CCC#N)c4c21)C(=O)NC3=O [Example 2, 13-(2-Cyanoethyl)-6,7,12,13-tetrahydro-3-hydroxy-12-methyl-5,7-dioxo-5H-indolo[2,3-a]pyrrolo[3,4-c]-carbazole]
18 nM	1.7	31 nM	Cn1c2ccc(O)cc2c2c3c(c4c5ccccc5n(CCC#N)c4c21)C(=O)NC3=O [Example 2a, 12-(2-cyanoethyl)-6,7,12,13-tetrahydro-3-hydroxy-13-methyl-5,7-dioxo-5H-indolo[2,3-a]pyrrolo[3,4-c]-carbazole]
32 nM	7.2	230 nM	Cn1c2ccccc2c2c3c(c4c5cc(O)c(O)cc5n(CCC#N)c4c21)C(=O)NC3=O [Example 2b, 13-(2-cyanoethyl)-6,7,12,13-tetrahydro-2,3-dihydroxy-12-methyl-5,7-dioxo-5H-indolo[2,3-a]pyrrolo[3,4-c]-carbazole]
